Assay results as given in US20260115253A1, “VISCOUS COMPOSITION FOR TREATING ISCHEMIA” (National Cheng Kung University, priority 2017, published 2026).

Tested on: diabetic mice with lower limb ischemia
Assay: Diabetic lower limb ischemia mouse model, blood flow by laser Doppler flowmetry
Format: in vivo
Conditions: 3.125 ng/g of VEGF in composition DIV
Description: C57BL/6 male mice were sourced from the National Cheng Kung University (NCKU) Laboratory Animal Center or BioLASCO Taiwan Co., Ltd. They were housed in the animal facility of the NCKU Institute of Biotechnology for at least one week in order for them to adapt to the environment before experiments were performed.
Since low blood sugar levels in mice would interfere with the results, mice with blood sugar levels within the range of 400 mg/dl to 550 mg/dl were used for the experiments, and minute amount of insulin might be applied to mice to avoid life-threatening high blood sugar levels. In order to avoid the possibility of self-regenerative neovascularization, the femoral artery and its peripheral blood vessels in the lower limbs of the mice were severed. The model minimized the possibility of blood vessel regeneration, which allowed a more accurate assessment of the angiogenic ability of testing drugs. […]
At day 0, 1, 2, 3, 4, 5, 6, 7, 14, 21 and 28 post-surgery, the apparent appearance and blood flow of the lower limb in the mice were evaluated using the score system shown in Table 1 and laser Doppler flowmetry, respectively. ROI was calculated as the ratio of the blood flow signal of the left lower limb to that of the untreated right lower limb post-surgery, and the ratio in percentage was normalized based on the blood flow signal taken before the operation.

Q: How did the “Blood flow compared with the control group” value turn out when VEGF was run?
A: significantly increased the blood flow at day 14 and then on post surgery
